Where two headings read alike, the source gives them in different places.
Columns and labels:
[1] = tested on: streptozotocin-induced rats; conditions: for Mean plasma FFA / Mean plasma insulin / Mean serum glucose: experimental rats, 5 mg per kg s.c. daily for 7 days
Procedure: Animals. Male albino Wistar rats 8-10 weeks of age 200-250 grams of body weight were used. The rats were housed at the temperature of 18±21° C. on a 12 hour light-dark cycle. Rats were fed on a stock laboratory diet (59% carbohydrates; 17% protein; 3% fat; 21% minerals, water, cellulose) and allowed water ad libitum. The streptozotocin (Sigma, St. Louis, Mo., USA) solved in citrate buffer (0.05M, pH 5.5) was injected into tail vein of male albino Wistar rats in a dose of 35 mg per kg of animal body weight to induce decompensated insulin resistance. The rats with levels of glucose more than 14.0 mmol/l were used in the experiment one week after the streptozotocin injection.
(§1) Assays. Plasma free fatty acids levels were determined by enzymatic method with a commercially available kit (Waho Chemicals Gmbh, Neuss, Germany) with Multistat 3 centrifugal analyzer (Instrumentation Laboratories, Lexington, USA).
(§2) Serum glucose concentrations were determined by the glucose oxidase method with a kit (Lachema, Slov.) with glucose analyzer (Beckman, Fullerton, Calif., USA).
(§3) Plasma insulin concentrations were determined by a double-antibody radioimmunoassay kit (Kabi Pharmacia Diagnostics, Uppsala, Sweden) using a rat insulin standard (Novo Research Institute, Bagsvard, Denmark).
Procedure. Streptozotocin-induced rats were assigned to two groups: a control rats (six rats) and experimental rats (fifteen rats). Experimental rats received daily injection (subcutaneously, 0.5 ml at 09.00 h) of water solution of succinic acid disodium salt hexahydrate in a dose of 5 mg per kg of body weight for period of 7 days.
Plasma free fatty acid levels (FFA), plasma Insulin levels and serum glucose levels were measured in rats by tail clipping method at zero day (before treatment), at third, fifth and seventh days (treatment period), and at tenth, fifteen, twentieth, twenty fifth and thirtieth days (after-treatment period).

[2] = tested on: healthy rats; conditions: no changes during thirty days of the experiment
Procedure: as §1, §2, §3

[3] = tested on: non-insulin dependent diabetic humans; conditions: for Mean plasma FFA / Mean plasma High Density Lipoprotein cholesterol (HDL) / Mean plasma Low Density Lipoprotein cholesterol (LDL) / Mean plasma Triglycerides / Mean plasma insulin / Mean serum glucose: NIDDM humans, orally 200 mg to 400 mg per day for 3 to 7 days
Text: Patients. Twelve non-insulin dependent diabetic humans were studied. Non-insulin Dependent Diabetes Mellitus (NIDDM) was diagnosed in the humans according to the World Health Organisation criteria and had been presented for minimum 5 years. The NIDDM humans were metabolically stable and had glucose levels more than 12.8 mmol/l. Six patients were taking oral sulphonylurea hypoglicemic drug glibenclamide (rec. INN). None of the humans were undergoing hypolipidemic therapy. The humans had no additive metabolic disorders.
Assays. Assays were used as described in the example 1 of the invention. Plasma insulin concentrations were determined by a double-antibody radioimmunoassay kit (Kabi Pharmacia Diagnostics, Uppsala, Sweden).
Procedure. Pharmaceutical grade succinic acid in a unit dosage form of 100 mg per gelatin capsule was used. All patients received succinic acid orally in daily dose of 200 mg to 400 mg per day for period of 3 to 7 days.
Plasma free fatty acid levels, insulin levels and serum glucose levels, plasma high density lipoprotein cholesterol (HDL-cholesterol), low density lipoprotein cholesterol (LDL-cholesterol) and triglycerides were measured in humans at zero day (before treatment ), at third and fifth days (treatment period), and at tenth, fifteen twentieth, twenty fifth thirtieth and fortieth days (after-treatment period).

[4] = tested on: pancreatic islets; conditions: MacDonald, Fahien, Diabetes 37(7): 997-999 (1988); cited from earlier work
[5] = day 10 (after-treatment period)
[6] = day 15 (after-treatment period)
[7] = day 20 (after-treatment period)
[8] = day 25 (after-treatment period)
[9] = day 30 (after-treatment period)
[10] = day 10 (after treatment period)
[11] = day 15 (after treatment period)
[12] = day 20 (after treatment period)
[13] = day 25 (after treatment period)
[14] = day 30 (after treatment period)
[15] = day 40 (after treatment period)
[16] = day 40 (after-treatment period)

Which results are given for `O.O.O.O.O.O.O=C([O-])CCC(=O)[O-].[Na+].[Na+]` [succinic acid disodium salt hexahydrate]?
Mean plasma FFA ([1]; day 0 (before treatment)): 0.35 ± 0.03 mmol/L; Mean plasma insulin ([1]; day 0 (before treatment)): 11.0 ± 0.7 ng/mL; Mean serum glucose ([1]; day 0 (before treatment)): 15.7 ± 2.6 mmol/L; Mean plasma FFA ([1]; day 3 (treatment period)): 0.32 ± 0.04 mmol/L; Mean plasma insulin ([1]; day 3 (treatment period)): 10.2 ± 1.1 ng/mL; Mean serum glucose ([1]; day 3 (treatment period)): 15.8 ± 3.1 mmol/L; Mean plasma FFA ([1]; day 5 (treatment period)): 0.25 ± 0.06 mmol/L; Mean plasma insulin ([1]; day 5 (treatment period)): 7.4 ± 0.8 ng/mL; Mean serum glucose ([1]; day 5 (treatment period)): 13.0 ± 2.4 mmol/L; Mean plasma FFA ([1]; day 7 (treatment period)): 0.18 ± 0.05 mmol/L; Mean plasma insulin ([1]; day 7 (treatment period)): 4.2 ± 0.7 ng/mL; Mean serum glucose ([1]; day 7 (treatment period)): 10.0 ± 1.2 mmol/L; Mean plasma FFA [1, 5]: 0.20 ± 0.06 mmol/L; Mean plasma insulin [1, 5]: 3.1 ± 0.8 ng/mL; Mean serum glucose [1, 5]: 10.1 ± 2.0 mmol/L; Mean plasma FFA [1, 6]: 0.15 ± 0.03 mmol/L; Mean plasma insulin [1, 6]: 2.4 ± 0.4 ng/mL; Mean serum glucose [1, 6]: 8.1 ± 1.1 mmol/L; Mean plasma FFA [1, 7]: 0.10 ± 0.05 mmol/L; Mean plasma insulin [1, 7]: 2.1 ± 0.4 ng/mL; Mean serum glucose [1, 7]: 6.6 ± 0.8 mmol/L; Mean plasma FFA [1, 8]: 0.11 ± 0.04 mmol/L; Mean plasma insulin [1, 8]: 2.0 ± 0.3 ng/mL; Mean serum glucose [1, 8]: 5.7 ± 0.5 mmol/L; Mean plasma FFA [1, 9]: 0.13 ± 0.04 mmol/L; Mean plasma insulin [1, 9]: 2.1 ± 0.3 ng/mL; Mean serum glucose [1, 9]: 5.4 ± 0.7 mmol/L; insulin sensitivity ([1]; insulin resistant rats in comparison with control insulin resistant rats, maximal efficacy in the after-treatment period): significant improving in insulin sensitivity; plasma free fatty acid levels [2]: 0.08 ± 0.03 mmol/L; plasma insulin levels [2]: 3.4 ± 0.6 ng/mL; serum glucose [2]: 4.8 ± 0.4 mmol/L

Which “Mean plasma FFA” value ([3]; day 0 (before treatment)) does the source give for `O=C(O)CCC(=O)O` [succinic acid] here?
The value was 0.240 ± 0.044 mmol/L.

And the “Mean plasma High Density Lipoprotein cholesterol (HDL)” value ([3]; day 0 (before treatment))?
Its value is 0.6 ± 0.4 mmol/L.

And the “Mean plasma Low Density Lipoprotein cholesterol (LDL)” value ([3]; day 0 (before treatment))?
Its value is 4.8 ± 0.3 mmol/L.

And the “Mean plasma Triglycerides” value ([3]; day 0 (before treatment))?
Its value is 2.7 ± 0.3 mmol/L.

What about the Mean plasma insulin ([3]; day 0 (before treatment)) of the same molecule?
The Mean plasma insulin was 140 ± 23 pmol/L.

And the Mean serum glucose ([3]; day 0 (before treatment))?
Its Mean serum glucose is 14.8 ± 1.4 mmol/L.

And the “Mean plasma FFA” value ([3]; day 3 (treatment period))?
Its value is 0.250 ± 0.071 mmol/L.

And the “Mean plasma High Density Lipoprotein cholesterol (HDL)” value ([3]; day 3 (treatment period))?
Its value is 0.7 ± 0.2 mmol/L.

And the “Mean plasma Low Density Lipoprotein cholesterol (LDL)” value ([3]; day 3 (treatment period))?
The value was 4.9 ± 0.4 mmol/L.

What about the “Mean plasma Triglycerides” value ([3]; day 3 (treatment period)) of the same molecule?
Its value is 2.8 ± 0.6 mmol/L.

And the Mean serum glucose ([3]; day 3 (treatment period))?
The Mean serum glucose was 14.5 ± 1.4 mmol/L.

And the “Mean plasma FFA” value ([3]; day 5 (treatment period))?
Its value is 0.195 ± 0.064 mmol/L.

What about the “Mean plasma High Density Lipoprotein cholesterol (HDL)” value ([3]; day 5 (treatment period)) of the same molecule?
Its value is 0.8 ± 0.2 mmol/L.

What about the “Mean plasma Low Density Lipoprotein cholesterol (LDL)” value ([3]; day 5 (treatment period)) of the same molecule?
The value was 4.7 ± 0.2 mmol/L.

And the “Mean plasma Triglycerides” value ([3]; day 5 (treatment period))?
Its value is 2.7 ± 0.3 mmol/L.

What about the Mean serum glucose ([3]; day 5 (treatment period)) of the same molecule?
Its Mean serum glucose is 14.9 ± 1.5 mmol/L.

What about the “Mean plasma High Density Lipoprotein cholesterol (HDL)” value [3, 10] of the same molecule?
The value was 1.2 ± 0.4 mmol/L.

And the “Mean plasma Low Density Lipoprotein cholesterol (LDL)” value [3, 10]?
The value was 4.3 ± 0.6 mmol/L.

And the “Mean plasma Triglycerides” value [3, 10]?
Its value is 2.5 ± 0.3 mmol/L.

And the “Mean plasma FFA” value [3, 5]?
Its value is 0.184 ± 0.035 mmol/L.

What about the Mean plasma insulin [3, 5] of the same molecule?
Its Mean plasma insulin is 134 ± 27 pmol/L.

And the Mean serum glucose [3, 5]?
The Mean serum glucose was 13.0 ± 2.0 mmol/L.

What about the “Mean plasma High Density Lipoprotein cholesterol (HDL)” value [3, 11] of the same molecule?
The value was 1.2 ± 0.3 mmol/L.

And the “Mean plasma Low Density Lipoprotein cholesterol (LDL)” value [3, 11]?
Its value is 4.0 ± 0.3 mmol/L.

And the “Mean plasma Triglycerides” value [3, 11]?
The value was 2.4 ± 0.4 mmol/L.

What about the “Mean plasma FFA” value [3, 6] of the same molecule?
Its value is 0.157 ± 0.032 mmol/L.

And the Mean serum glucose [3, 6]?
The Mean serum glucose was 13.1 ± 0.8 mmol/L.

And the “Mean plasma High Density Lipoprotein cholesterol (HDL)” value [3, 12]?
The value was 1.2 ± 0.4 mmol/L.

And the “Mean plasma Low Density Lipoprotein cholesterol (LDL)” value [3, 12]?
The value was 3.5 ± 0.4 mmol/L.

And the “Mean plasma Triglycerides” value [3, 12]?
The value was 1.8 ± 0.4 mmol/L.

What about the “Mean plasma FFA” value [3, 7] of the same molecule?
Its value is 0.161 ± 0.034 mmol/L.

What about the Mean plasma insulin [3, 7] of the same molecule?
The Mean plasma insulin was 124 ± 17 pmol/L.

What about the Mean serum glucose [3, 7] of the same molecule?
The Mean serum glucose was 11.0 ± 1.0 mmol/L.

And the “Mean plasma High Density Lipoprotein cholesterol (HDL)” value [3, 13]?
Its value is 1.3 ± 0.2 mmol/L.

What about the “Mean plasma Low Density Lipoprotein cholesterol (LDL)” value [3, 13] of the same molecule?
Its value is 3.4 ± 0.3 mmol/L.

What about the “Mean plasma Triglycerides” value [3, 13] of the same molecule?
Its value is 1.3 ± 0.2 mmol/L.

And the “Mean plasma FFA” value [3, 8]?
Its value is 0.113 ± 0.046 mmol/L.

What about the Mean serum glucose [3, 8] of the same molecule?
The Mean serum glucose was 9.4 ± 1.3 mmol/L.

And the “Mean plasma High Density Lipoprotein cholesterol (HDL)” value [3, 14]?
The value was 1.5 ± 0.2 mmol/L.

And the “Mean plasma Low Density Lipoprotein cholesterol (LDL)” value [3, 14]?
The value was 3.4 ± 0.2 mmol/L.

What about the “Mean plasma Triglycerides” value [3, 14] of the same molecule?
Its value is 1.1 ± 0.1 mmol/L.

What about the “Mean plasma FFA” value [3, 9] of the same molecule?
Its value is 0.086 ± 0.035 mmol/L.

And the Mean plasma insulin [3, 9]?
The Mean plasma insulin was 118 ± 21 pmol/L.

And the Mean serum glucose [3, 9]?
The Mean serum glucose was 7.1 ± 0.6 mmol/L.

And the “Mean plasma High Density Lipoprotein cholesterol (HDL)” value [3, 15]?
The value was 1.3 ± 0.2 mmol/L.

What about the “Mean plasma Low Density Lipoprotein cholesterol (LDL)” value [3, 15] of the same molecule?
The value was 3.5 ± 0.4 mmol/L.

What about the “Mean plasma Triglycerides” value [3, 15] of the same molecule?
The value was 1.4 ± 0.2 mmol/L.

And the “Mean plasma FFA” value [3, 16]?
The value was 0.100 ± 0.022 mmol/L.

And the Mean plasma insulin [3, 16]?
Its Mean plasma insulin is 112 ± 14 pmol/L.

And the Mean serum glucose [3, 16]?
Its Mean serum glucose is 5.8 ± 1.1 mmol/L.

What about the “change of plasma triglycerides, LDL cholesterol and HDL cholesterol” value ([3]; non-insulin dependent diabetic humans, especially in the after-treatment period) of the same molecule?
Its value is “reducing plasma triglycerides and low density lipoprotein cholesterol, and increasing plasma high density lipoprotein cholesterol”.

What about the insulin sensitivity ([3]; non-insulin dependent diabetic humans, maximal efficacy in the after-treatment period) of the same molecule?
The insulin sensitivity was “improving in insulin sensitivity”.

And the insulin release [4]?
Its insulin release is “did not stimulate insulin release”.

From US6521665B1, “Method of treating insulin resistance” (priority 2001, dated 2003)
